The values that follow come from patent US20130252832A1, “KRAS Variant and Tumor Biology” (Yale University, priority 2012, published 2013).

Assay [1] concerns KRAS-variant 3′UTR reporter. Nature of the assay: Luciferase 3'UTR reporter expression following irinotecan exposure. Format: cell-based. The source says: (§1) The disclosure provides a method of predicting the response of a cancer cell to the combination of a chemotherapy and monoclonal antibody therapy, including detecting a mutation in let-7 complementary site LCS6 of human KRAS in a patient sample, wherein the mutation is a SNP comprising a uracil (U) or thymine (T) to guanine (G) transition at position 4 of LCS6, and wherein the presence of the mutation indicates a resistance to the combination. In certain embodiments of this method, the cancer cell is a colorectal cancer (CRC) cell. The cancer cell may be evaluated in vitro or ex vivo. […] The chemotherapy may be a cytotoxic agent. A non-limiting example of the cytotoxic agent is irinotecan.
(§2) FIG. 24B is a graph depicting the fold repression (expressed as KRAS variant/KRAS wild type) as a function of irinotecan concentration, when cancer cells are treated with irinotecan.

The subject of a further assay is wild-type 3′UTR reporter. The description is as above. Format: cell-based.
From the text: as §1, §2

For `CCc1c2c(nc3ccc(OC(=O)N4CCC(N5CCCCC5)CC4)cc13)-c1cc3c(c(=O)n1C2)COC(=O)[C@]3(O)CC` [irinotecan], the “Reporter expression following irinotecan exposure” value in assay [1] is “statistically-significant increase”; in the assay with wild-type 3′UTR reporter, “no change”.
